Measured values reported in PubChem BioAssay (NCI).
Values joined by “and” are separate entries in the source; they are usually repeats but may differ in a detail not shown here. Equal values may be shown once.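 Briefly, cells in 96-well plates were exposed to five compound concentrations for 48 h, and endpoints were estimated by linear interpolation. GI50 = concentration required for 50% inhibition of growth. TGI is the concentration that stops growth completely.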

How the values were obtained:
Test in all cases: inhibition of tumour cell growth, NCI panel, 48 h
SNB-19 CNS = system: SNB-19 CNS
OVCAR-5 ovarian = system: OVCAR-5 ovarian
SNB-75 CNS = system: SNB-75 CNS
OVCAR-4 ovarian = system: OVCAR-4 ovarian
HT29 colon = system: HT29 colon
RPMI-8226 leukemia = system: RPMI-8226 leukemia
TK-10 renal = system: TK-10 renal
HL-60(TB) leukemia = system: HL-60(TB) leukemia
HOP-92 NSCLC = system: HOP-92 NSCLC
UO-31 renal = system: UO-31 renal

| SMILES | GI50 (SNB-19 CNS) | TGI (SNB-19 CNS) | GI50 (OVCAR-5 ovarian) | TGI (OVCAR-5 ovarian) | GI50 (SNB-75 CNS) [µM] | TGI (SNB-75 CNS) | GI50 (OVCAR-4 ovarian) | TGI (OVCAR-4 ovarian) [µM] | GI50 (HT29 colon) [µM] | TGI (HT29 colon) | GI50 (RPMI-8226 leukemia) | TGI (RPMI-8226 leukemia) [µM] | GI50 (TK-10 renal) [µM] | TGI (TK-10 renal) | GI50 (HL-60(TB) leukemia) [µM] | TGI (HL-60(TB) leukemia) | GI50 (HOP-92 NSCLC) | TGI (HOP-92 NSCLC) [µM] | GI50 (UO-31 renal) [µM] | TGI (UO-31 renal) |
| --- | --- | --- | --- | --- | --- | --- | --- | --- | --- | --- | --- | --- | --- | --- | --- | --- | --- | --- | --- | --- |
| COc1cc(OC)c2cc(C(=O)O)c(=O)oc2c1 | > 100 µM | > 100 µM | > 100 µM | > 100 µM | > 100 | > 100 µM | > 100 µM | > 100 | > 100 | > 100 µM | 6.1 µM | > 36.2 | > 74.5 | > 100 µM | > 100 | > 100 µM | > 100 µM | > 100 | > 61.7 | > 100 µM |
| COc1cc(C2CC(c3ccc(Nc4ccnc5cc(Cl)ccc45)cc3)=NN2C=O)cc(OC)c1OC (stereo unspecified) | 18.2 µM | > 100 µM | 69.2 µM | > 100 µM | 5.19 | 32.5 µM | 3.19 µM | 13.3 | 2.83 | 7.17 µM | 2.56 µM | 8.63 | 3.09 | 9.4 µM | 2.53 | 7.4 µM | 1.83 µM | 5.59 | 4.96 | 21.3 µM |
| CC(C)=CCc1ccc(O)c(=O)cc1C(C)C | 0.735 µM | > 100 µM | 3.39 µM | > 100 µM | 2.88 | > 100 µM | 0.532 µM | > 100 | 1.51 | > 100 µM | 0.673 µM | > 91.3 | 0.746 | > 100 µM | 0.624 | 8.72 µM | 1.32 µM | 65.3 | 0.378 | 3.92 µM |
| O=C(Nc1ccc(Cl)cc1)c1ccc([N+](=O)[O-])o1 | 2.6 µM | 10.6 µM | 2.37 µM | 5.41 µM | 1.63 | 5.38 µM | 2.11 µM | 8.31 | 1.34 | 3.45 µM | 3.72 µM | 38.1 | 2.4 | 5.32 µM | 2.63 | 7.66 µM | 10.4 µM | 27.2 | 1.38 | 2.96 µM |
| COc1cc(C(=O)N2CCN(c3ccccc3OC)CC2)c(N)cc1OCc1ccccc1 | 25.7 µM | > 100 µM | 80.6 µM | > 100 µM | 42.6 | > 100 µM | 32.2 µM | > 100 | 31.3 | > 100 µM | 21.1 µM | 49.2 | 31.9 | 73.2 µM | 25.5 | 48.8 µM | 14.8 µM | 43.4 | 22.4 | > 100 µM |
| Oc1ccc2c3c1OC1C(=NN=C4CCC5(O)C6Cc7ccc(O)c8c7C5(CCN6CC5CC5)C4O8)CCC4(O)C(C2)N(CC2CC2)CCC314 (stereo unspecified) | – | > 100 µM | – | > 100 µM | – | > 71.8 µM | – | > 66 | – | 32.8 µM | – | 88.7 | – | > 70.2 µM | – | 39.8 µM | – | 53.4 | – | > 100 µM |
| CN(C)c1ccc(/C=C/c2ccnc3ccccc23)cc1N | – | 28.5 µM | – | 31.2 µM | – | 19.5 µM | – | 32.9 | – | 17.7 µM | – | 15.5 | – | 20.2 µM | – | 13.9 µM | – | 5.87 | – | 20.2 µM |
| Nc1nc(Cl)c(N=Nc2ccc(Cl)cc2)c(NCC2(CO)CC(OCc3ccccc3)C2)n1 (stereo unspecified) | 26.7 µM and > 100 µM and 18.3 µM | > 100 µM and 47.6 µM | 13.4 µM and > 100 µM and 12 µM | > 100 µM and 30.2 µM | 4.55 | 26.8 µM and > 29.1 µM and 25.5 µM | 2.25 µM and 15.9 µM and 3.65 µM | – | – | 20 µM and > 100 µM and 14 µM | 7.56 µM and > 44.4 µM and 14.5 µM | > 100 | – | 46.9 µM and > 100 µM and 24.3 µM | 3.09 | 29 µM and > 100 µM | 1.83 µM and 6.13 µM and 2.33 µM | – | 3.27 | 12.5 µM and 6.43 µM |
| O=C1c2cccc3cccc(c23)C(=O)N1CCCCN1CCN(CCCCOc2ccc(-c3nc4ccc(N5CCOCC5)cc4[nH]3)cc2)CC1 | > 100 µM | > 100 µM | > 100 µM | > 100 µM | > 100 | > 100 µM | > 100 µM | > 100 | > 100 | > 100 µM | > 100 µM | > 100 | > 100 | > 100 µM | 4.62 | > 100 µM | > 100 µM | > 100 | > 100 | > 100 µM |
| CCOP(=O)(OCC)/C(C#N)=C/c1ccc[nH]1 | – | > 100 µM | – | > 100 µM | – | > 100 µM | – | > 100 | – | > 100 µM | – | > 100 | – | > 100 µM | – | > 100 µM | – | > 100 | – | > 100 µM |
| COc1cc(-n2cc(-c3ccc(F)cc3)[nH]c2=S)cc(OC)c1OC | 36.6 µM | > 100 µM | > 100 µM | > 100 µM | 17.9 | 46.5 µM | > 100 µM | > 100 | > 100 | > 100 µM | > 100 µM | > 100 | > 100 | > 100 µM | > 100 | > 100 µM | 45.5 µM | > 100 | > 100 | > 100 µM |
| O=c1[nH]ccc2nc(-c3ccc(CN4CCC(c5nc(-c6ccccn6)n[nH]5)CC4)cc3)c(-c3ccccc3)cc12 | 17.1 µM | > 100 µM | 37.8 µM | > 100 µM | 0.0534 | 7.75 µM | > 80.7 µM | > 100 | 1.98 | > 100 µM | 4.85 µM | > 50.2 | 3.37 | 30.4 µM | 23.6 | > 86.7 µM | 0.121 µM | > 21.3 | 0.975 | > 100 µM |
| O=C1/C(=C/c2ccc(Cl)cc2)CN(Cc2cn(CCNc3ccnc4cc(Cl)ccc34)nn2)C/C1=C\c1ccc(Cl)cc1 | 0.319 µM | 1.27 µM | 0.612 µM | 1.62 µM | 1.22 | 2.63 µM | 0.353 µM | 1.81 | 0.231 | 0.489 µM | 0.272 µM | 1.05 | 0.483 | 1.6 µM | 0.332 | 1.1 µM | 0.496 µM | 1.83 | 0.242 | 0.698 µM |
